{"source": "paper PMC9130998", "about": "“Paclitaxel binds and activates C5aR1: A new potential therapeutic target for the prevention of chemotherapy-induced peripheral neuropathy and hypersensitivity reactions” (Cell Death & Disease, 2022)", "biological_target": "T1, complement component 5a receptor 1 (C5aR1) (Homo sapiens, UniProt P21730)", "T1 construct": "recombinant human C5aR1 with a C-terminal c-Myc tag", "T1 sequence (P21730 1-350)": "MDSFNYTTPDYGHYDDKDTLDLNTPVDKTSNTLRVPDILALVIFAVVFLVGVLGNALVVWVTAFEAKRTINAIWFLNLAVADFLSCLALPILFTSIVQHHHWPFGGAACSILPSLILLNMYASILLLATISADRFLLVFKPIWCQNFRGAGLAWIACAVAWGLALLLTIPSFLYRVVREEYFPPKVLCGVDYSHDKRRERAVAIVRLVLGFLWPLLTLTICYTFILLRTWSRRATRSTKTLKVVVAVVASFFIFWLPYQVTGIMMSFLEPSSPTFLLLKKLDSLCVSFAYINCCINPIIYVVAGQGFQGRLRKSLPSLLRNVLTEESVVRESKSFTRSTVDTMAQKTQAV", "test": "SPR (BIAcore X100) on immobilized receptor, dose-dependent", "assay_type": "binding", "data": [{"compound": "CC(=O)O[C@@]12CO[C@@H]1C[C@H](O)[C@@]1(C)C(=O)[C@H](O)C3=C(C)[C@@H](OC(=O)[C@H](O)[C@@H](NC(=O)OC(C)(C)C)c4ccccc4)C[C@@](O)([C@@H](OC(=O)c4ccccc4)[C@H]21)C3(C)C", "note": "[docetaxel]", "values": [{"measurement": "SPR (BIAcore X100) on immobilized receptor, dose-dependent", "value": "similarly to paclitaxel, also docetaxel can bind C5aR1 receptor in a dose dependent way (Fig. S2A–D)"}]}]}
